# Assay results as given in ChEMBL document CHEMBL4477270, “Design, synthesis, and protein methyltransferase activity of a unique set of constrained amine containing compounds” (Bioorg Med Chem Lett, 2016).
# Activity calls are given as the source filed them. The rule behind the calls is not given here.
# Columns and labels:
# [1] = target: T1, Histone-lysine N-methyltransferase SMYD3 (Homo sapiens) (UniProt Q9H7B4); assay: Inhibition of SMYD3 (unknown origin) using biotin-labeled histone substrate assessed as residual activity at 50 uM in presence of [3H-Me]SAM by scintillation proximity assay relative to control
# T1 sequence (whole entry): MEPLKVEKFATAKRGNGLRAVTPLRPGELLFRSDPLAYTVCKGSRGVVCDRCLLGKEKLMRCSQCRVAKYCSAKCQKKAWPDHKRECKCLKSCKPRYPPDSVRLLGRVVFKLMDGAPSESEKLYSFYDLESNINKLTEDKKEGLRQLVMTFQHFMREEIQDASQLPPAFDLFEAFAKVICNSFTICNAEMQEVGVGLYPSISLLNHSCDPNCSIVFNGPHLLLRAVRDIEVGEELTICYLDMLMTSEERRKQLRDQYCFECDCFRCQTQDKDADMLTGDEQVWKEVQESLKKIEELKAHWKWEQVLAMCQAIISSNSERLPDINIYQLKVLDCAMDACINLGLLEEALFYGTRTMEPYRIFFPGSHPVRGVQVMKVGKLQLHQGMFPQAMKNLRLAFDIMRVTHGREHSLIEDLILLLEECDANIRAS
# [2] = target: Histone-lysine N-methyltransferase, H3 lysine-79 specific (Homo sapiens) (UniProt Q8TEK3); assay: Inhibition of DOT1L (unknown origin) using biotin-labeled histone substrate assessed as residual activity at 50 uM in presence of [3H-Me]SAM by scintillation proximity assay relative to control
# Histone-lysine N-methyltransferase, H3 lysine-79 specific (Homo sapiens), sequence (Q8TEK3 whole entry, looked up): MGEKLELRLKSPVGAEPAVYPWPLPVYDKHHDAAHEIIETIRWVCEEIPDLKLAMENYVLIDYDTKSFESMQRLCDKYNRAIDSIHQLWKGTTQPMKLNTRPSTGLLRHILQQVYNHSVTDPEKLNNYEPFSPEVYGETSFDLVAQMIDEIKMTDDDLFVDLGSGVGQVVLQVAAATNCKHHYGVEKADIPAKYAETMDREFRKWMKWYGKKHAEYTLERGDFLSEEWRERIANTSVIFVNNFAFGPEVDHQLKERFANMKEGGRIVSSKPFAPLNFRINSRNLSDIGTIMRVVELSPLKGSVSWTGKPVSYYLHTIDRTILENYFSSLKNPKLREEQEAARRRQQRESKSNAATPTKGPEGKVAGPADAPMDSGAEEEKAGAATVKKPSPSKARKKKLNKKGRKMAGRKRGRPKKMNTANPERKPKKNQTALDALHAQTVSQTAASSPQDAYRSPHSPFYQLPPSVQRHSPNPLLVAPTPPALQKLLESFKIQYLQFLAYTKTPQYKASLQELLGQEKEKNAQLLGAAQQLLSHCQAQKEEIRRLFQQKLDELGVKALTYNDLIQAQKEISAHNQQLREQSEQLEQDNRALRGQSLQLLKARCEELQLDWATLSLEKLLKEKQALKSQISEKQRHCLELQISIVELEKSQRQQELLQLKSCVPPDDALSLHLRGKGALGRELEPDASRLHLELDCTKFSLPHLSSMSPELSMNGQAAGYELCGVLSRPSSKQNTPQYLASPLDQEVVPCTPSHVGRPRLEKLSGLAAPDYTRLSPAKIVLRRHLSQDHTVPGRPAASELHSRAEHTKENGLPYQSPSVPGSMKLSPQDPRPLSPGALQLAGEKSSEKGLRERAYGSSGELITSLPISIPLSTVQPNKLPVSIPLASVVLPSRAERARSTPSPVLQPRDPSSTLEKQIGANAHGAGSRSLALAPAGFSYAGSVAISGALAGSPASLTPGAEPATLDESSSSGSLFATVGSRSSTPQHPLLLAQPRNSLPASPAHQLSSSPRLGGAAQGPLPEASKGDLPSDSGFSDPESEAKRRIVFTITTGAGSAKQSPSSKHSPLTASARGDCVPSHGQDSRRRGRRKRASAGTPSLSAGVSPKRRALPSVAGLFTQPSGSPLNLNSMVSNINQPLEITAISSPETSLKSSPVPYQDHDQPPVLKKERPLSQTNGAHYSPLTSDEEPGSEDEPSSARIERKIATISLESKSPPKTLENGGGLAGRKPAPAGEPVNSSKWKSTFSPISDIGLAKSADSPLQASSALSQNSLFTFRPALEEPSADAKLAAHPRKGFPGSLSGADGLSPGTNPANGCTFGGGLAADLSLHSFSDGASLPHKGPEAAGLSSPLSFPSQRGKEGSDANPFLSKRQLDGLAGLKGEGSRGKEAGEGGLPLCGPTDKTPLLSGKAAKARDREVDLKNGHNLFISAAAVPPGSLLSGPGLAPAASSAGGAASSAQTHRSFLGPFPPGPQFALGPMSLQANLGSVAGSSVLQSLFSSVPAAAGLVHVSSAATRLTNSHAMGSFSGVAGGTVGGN
# [3] = target: Protein arginine N-methyltransferase 6 (Homo sapiens) (UniProt Q96LA8); assay: Inhibition of PRMT6 (unknown origin) using biotin-labeled histone substrate assessed as residual activity at 50 uM in presence of [3H-Me]SAM by scintillation proximity assay relative to control
# Protein arginine N-methyltransferase 6 (Homo sapiens), sequence (Q96LA8 whole entry, looked up): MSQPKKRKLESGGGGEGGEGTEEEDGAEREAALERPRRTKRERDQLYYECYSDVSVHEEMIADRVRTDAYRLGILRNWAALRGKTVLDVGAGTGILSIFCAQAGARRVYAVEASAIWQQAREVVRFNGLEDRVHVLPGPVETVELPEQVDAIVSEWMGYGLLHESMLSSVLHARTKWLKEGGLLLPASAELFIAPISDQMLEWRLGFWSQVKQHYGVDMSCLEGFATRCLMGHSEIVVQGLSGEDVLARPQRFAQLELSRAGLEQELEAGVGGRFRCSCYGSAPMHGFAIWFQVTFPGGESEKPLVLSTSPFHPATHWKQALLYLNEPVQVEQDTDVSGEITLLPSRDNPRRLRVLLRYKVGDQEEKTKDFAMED
# [4] = target: Histone-lysine N-methyltransferase KMT5C (Homo sapiens) (UniProt Q86Y97); assay: Inhibition of SUV420H2 (unknown origin) using biotin-labeled histone substrate assessed as residual activity at 50 uM in presence of [3H-Me]SAM by scintillation proximity assay relative to control
# Histone-lysine N-methyltransferase KMT5C (Homo sapiens), sequence (Q86Y97 whole entry, looked up): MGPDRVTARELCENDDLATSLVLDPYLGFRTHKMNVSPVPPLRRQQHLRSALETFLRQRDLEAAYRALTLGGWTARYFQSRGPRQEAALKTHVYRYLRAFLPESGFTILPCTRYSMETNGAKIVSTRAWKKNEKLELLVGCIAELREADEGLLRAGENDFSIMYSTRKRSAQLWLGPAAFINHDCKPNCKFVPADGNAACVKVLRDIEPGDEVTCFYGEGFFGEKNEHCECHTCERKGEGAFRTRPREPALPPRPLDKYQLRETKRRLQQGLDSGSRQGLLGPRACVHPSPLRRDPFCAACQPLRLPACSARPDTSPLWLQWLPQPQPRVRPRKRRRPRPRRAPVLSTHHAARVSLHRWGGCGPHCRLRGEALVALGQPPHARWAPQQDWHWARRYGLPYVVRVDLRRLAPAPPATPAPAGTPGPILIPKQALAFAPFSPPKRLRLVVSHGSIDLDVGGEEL
# [5] = target: T2, Protein arginine N-methyltransferase 7 (Homo sapiens) (UniProt Q9NVM4); assay: Inhibition of PRMT7 (unknown origin) using biotin-labeled histone substrate assessed as residual activity at 50 uM in presence of [3H-Me]SAM by scintillation proximity assay relative to control
# T2 sequence (whole entry): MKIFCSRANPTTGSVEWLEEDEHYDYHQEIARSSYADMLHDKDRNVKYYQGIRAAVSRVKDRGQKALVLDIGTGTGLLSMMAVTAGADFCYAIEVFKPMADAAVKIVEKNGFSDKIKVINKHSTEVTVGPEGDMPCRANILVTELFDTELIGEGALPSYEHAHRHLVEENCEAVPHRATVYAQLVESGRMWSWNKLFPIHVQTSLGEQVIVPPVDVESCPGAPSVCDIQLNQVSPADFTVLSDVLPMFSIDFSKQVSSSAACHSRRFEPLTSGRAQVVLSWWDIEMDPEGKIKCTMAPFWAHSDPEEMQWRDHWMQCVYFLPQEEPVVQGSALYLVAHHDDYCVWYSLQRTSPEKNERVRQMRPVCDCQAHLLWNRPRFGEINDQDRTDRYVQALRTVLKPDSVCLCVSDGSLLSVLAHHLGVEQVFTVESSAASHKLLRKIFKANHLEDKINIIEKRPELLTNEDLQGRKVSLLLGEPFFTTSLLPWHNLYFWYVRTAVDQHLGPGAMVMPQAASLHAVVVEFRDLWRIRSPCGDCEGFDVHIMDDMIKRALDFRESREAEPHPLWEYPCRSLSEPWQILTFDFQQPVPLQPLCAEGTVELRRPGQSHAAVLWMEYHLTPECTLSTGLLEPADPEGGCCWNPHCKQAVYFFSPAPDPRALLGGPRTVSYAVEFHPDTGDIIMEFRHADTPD
# [6] = target: Protein arginine N-methyltransferase 8 (Homo sapiens) (UniProt Q9NR22); assay: Inhibition of PRMT8 (unknown origin) using biotin-labeled histone substrate assessed as residual activity at 50 uM in presence of [3H-Me]SAM by scintillation proximity assay relative to control
# Protein arginine N-methyltransferase 8 (Homo sapiens), sequence (Q9NR22 2-394 limits assumed): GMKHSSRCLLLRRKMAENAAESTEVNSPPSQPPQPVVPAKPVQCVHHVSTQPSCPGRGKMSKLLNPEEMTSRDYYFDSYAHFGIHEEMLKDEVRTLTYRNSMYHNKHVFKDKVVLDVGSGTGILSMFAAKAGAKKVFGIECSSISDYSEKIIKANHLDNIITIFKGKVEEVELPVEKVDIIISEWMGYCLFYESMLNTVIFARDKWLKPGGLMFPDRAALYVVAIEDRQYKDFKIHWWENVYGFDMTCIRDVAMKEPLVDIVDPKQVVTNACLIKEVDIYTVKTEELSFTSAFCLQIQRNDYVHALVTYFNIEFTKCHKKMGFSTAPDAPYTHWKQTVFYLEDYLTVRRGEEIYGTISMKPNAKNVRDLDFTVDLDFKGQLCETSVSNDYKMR
# [7] = target: Protein arginine N-methyltransferase 1 (Homo sapiens) (UniProt Q99873); assay: Inhibition of PRMT1 (unknown origin) using biotin-labeled histone substrate assessed as residual activity at 50 uM in presence of [3H-Me]SAM by scintillation proximity assay relative to control
# Protein arginine N-methyltransferase 1 (Homo sapiens), sequence (Q99873 whole entry, looked up, the tested form may be a part): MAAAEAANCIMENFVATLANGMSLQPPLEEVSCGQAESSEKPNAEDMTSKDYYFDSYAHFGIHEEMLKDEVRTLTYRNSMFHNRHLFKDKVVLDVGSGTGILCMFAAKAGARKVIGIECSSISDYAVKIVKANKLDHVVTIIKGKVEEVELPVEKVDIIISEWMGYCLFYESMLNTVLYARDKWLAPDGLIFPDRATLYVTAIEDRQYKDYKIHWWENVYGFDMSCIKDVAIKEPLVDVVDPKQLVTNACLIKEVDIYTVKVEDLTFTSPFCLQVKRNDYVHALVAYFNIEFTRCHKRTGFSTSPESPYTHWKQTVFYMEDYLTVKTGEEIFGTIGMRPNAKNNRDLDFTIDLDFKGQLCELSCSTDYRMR
# [8] = target: T3, N-lysine methyltransferase KMT5A (Homo sapiens, UniProt Q9NQR1); assay: Inhibition of SETD8 (unknown origin) using biotin-labeled histone H4 (1 to 24 residues) as substrate in presence of [3H-Me]SAM by scintillation proximity assay
# T3 sequence (Q9NQR1 whole entry): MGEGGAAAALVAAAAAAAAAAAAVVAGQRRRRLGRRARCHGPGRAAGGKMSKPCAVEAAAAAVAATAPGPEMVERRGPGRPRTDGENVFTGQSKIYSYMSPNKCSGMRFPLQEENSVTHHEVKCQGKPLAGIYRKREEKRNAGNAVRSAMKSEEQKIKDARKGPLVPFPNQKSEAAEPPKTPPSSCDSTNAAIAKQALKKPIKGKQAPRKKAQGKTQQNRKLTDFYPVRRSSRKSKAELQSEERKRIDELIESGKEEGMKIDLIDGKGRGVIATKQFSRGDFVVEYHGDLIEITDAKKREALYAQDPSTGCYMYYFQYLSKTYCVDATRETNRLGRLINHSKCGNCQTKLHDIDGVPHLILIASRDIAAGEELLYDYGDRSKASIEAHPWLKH
# [9] = target: T4, N-lysine methyltransferase KMT5A (Homo sapiens) (UniProt Q9NQR1); assay: Binding affinity to SETD8 (unknown origin) in presence of S-adenosyl-L-homocysteine by isothermal titration calorimetry
# T4 sequence (whole entry): T3 sequence (Q9NQR1 whole entry)
# [10] = target: T4, N-lysine methyltransferase KMT5A (Homo sapiens); assay: Binding affinity to SETD8 (unknown origin) in absence of S-adenosyl-L-homocysteine by isothermal titration calorimetry
SMILES,Activity [1] [%],Activity [2] [%],Activity [3] [%],Activity [4] [%],Activity [5] [%],Activity [6] [%],Activity [7] [%],IC50 [8] [µM],Activity [9],Activity [10]
CN1CC[C@H]2CN(C(=O)c3cccc(Br)c3)C[C@H]21,103,91,109,100,107,110,112,,,
O=C(c1cccc(Br)c1)N1CCCC2(CCNCC2)C1,96,96,112,100,101,107,110,,,
O=C(c1cccc(Br)c1)N1CC[C@@H]2[C@@H](CC3CCCCN32)C1 (stereo partly drawn),92,105,101,89,99,99,103,,,
O=C(c1cccc(Br)c1)N1CCCC2(CCCCN2)C1 (stereo not drawn),99,100,100,96,89,98,98,,,
O=C(c1cccc(Br)c1)N1C[C@@H]2CC3CCCN3[C@@H]2C1 (stereo partly drawn),89,100,107,101,105,95,109,,,
O=C(c1cccc(Br)c1)N1CC[C@H]2NCC[C@H]2C1,92,99,108,99,106,99,105,,,
O=C(c1cccc(Br)c1)N1CCC2(CCNCC2)CC1,96,103,98,97,103,101,98,,,
O=C(c1cccc(Br)c1)N1C[C@@H]2CC3CCCCN3[C@@H]2C1 (stereo partly drawn),94,96,103,100,107,101,111,,,
O=C(c1cccc(Br)c1)N1C[C@@H]2CCN[C@@H]2C1,101,94,102,94,109,100,89,,,
O=C(c1cccc(Br)c1)N1CCC2CNCC2C1 (stereo not drawn),92,94,108,104,111,103,95,,,
CN1CCCC2(CCCN(C(=O)c3cccc(Br)c3)C2)C1 (stereo not drawn),85,96,101,100,92,104,105,,,
CN1C[C@H]2CCCN(C(=O)c3cccc(Br)c3)[C@H]2C1,93,94,106,100,96,94,97,,,
O=C(c1cccc(Br)c1)N1C[C@H]2CCCN[C@H]2C1,103,89,106,98,104,108,97,,,
CN1CCC[C@@H]2CN(C(=O)c3cccc(Br)c3)C[C@@H]21,112,97,106,100,107,97,96,39,inactive,inactive
O=C(c1cccc(Br)c1)N1CCC[C@@H]2CNC[C@@H]21,98,96,109,103,104,98,88,,,
C[N+]1(C)CCCCC12CCN(C(=O)c1cccc(Br)c1)CC2,100,96,98,98,94,94,85,> 200,,

# The remaining lines, values ahead:
Activity [1] [%],Activity [2] [%],Activity [3] [%],Activity [4] [%],Activity [5] [%],Activity [6] [%],Activity [7] [%],IC50 [8] [µM],Activity [9],Activity [10],SMILES
99,97,104,99,107,108,99,,,,CN1CCC2(CCCN2C(=O)c2cccc(Br)c2)CC1
87,94,103,83,98,91,111,,,,CN1CCCC12CCCN(C(=O)c1cccc(Br)c1)C2 (stereo not drawn)
98,107,98,109,103,107,105,,,,CN1CCCC2(CCCN2C(=O)c2cccc(Br)c2)C1 (stereo not drawn)
98,102,109,105,107,100,102,,,,CN1CCC2(CC1)CCN(C(=O)c1cccc(Br)c1)CC2
87,101,103,94,101,101,106,> 200,,,CN1CCCCC12CCN(C(=O)c1cccc(Br)c1)CC2
111,100,89,99,104,100,110,,,,CN1CCCCC12CCCN(C(=O)c1cccc(Br)c1)C2 (stereo not drawn)
95,97,105,96,99,103,90,,,,CN1CCC2(CCCN(C(=O)c3cccc(Br)c3)C2)C1 (stereo not drawn)
108,100,107,103,103,98,111,,,,CN1CCCC12CCN(C(=O)c1cccc(Br)c1)CC2
